In ChEMBL document CHEMBL5143546, “Synthesis and biological evaluation of quinolone derivatives as transthyretin amyloidogenesis inhibitors and fluorescence sensors” (Bioorg Med Chem, 2022):

Columns and labels:
[1] = target: T1, Transthyretin (Homo sapiens, UniProt P02766); test: Inhibition of wild-type Transthyretin (unknown origin) expressed in Escherichia coli expression system assessed as acid mediated fibril formation at 7.2 uM measured after 72 hrs by UV-vis spectrophotometry; parameters: scale not given: the % may be the effect or the level left
[2] = target: T1, Transthyretin; test: Inhibition of wild-type Transthyretin (unknown origin) expressed in Escherichia coli expression system assessed as acid mediated fibril formation at 3.6 uM measured after 72 hrs by UV-vis spectrophotometry; parameters: scale not given: the % may be the effect or the level left
[3] = system: Transthyretin (Homo sapiens), P02766 [V50M]; test: Inhibition of Transthyretin V30M mutant (unknown origin) assessed as acid mediated fibril formation at 1.8 uM measured after 72 hrs by UV-vis spectrophotometry; parameters: scale not given: the % may be the effect or the level left
[4] = target: T1, Transthyretin; test: Inhibition of urea-induced Transthyretin denaturation in human plasma preincubated for 1 hr followed by urea addition by Western blot analysis; type: cell-free
[5] = system: Transthyretin (Homo sapiens), P02766 [V50M]; test: Inhibition of Transthyretin V30M mutant (unknown origin) assessed as acid mediated fibril formation at 3.6 uM measured after 72 hrs by UV-vis spectrophotometry; parameters: scale not given: the % may be the effect or the level left
[6] = Metabolic stability in human liver microsome assessed as percentage of compound remaining at 1 uM measured after 30 min by LC-MS/MS analysis; type: ADME; conditions: liver microsomes, read-out: Stability
[7] = Metabolic stability in rat plasma assessed as half life at 1 uM by LC-MS/MS analysis; type: ADME, cell-free
[8] = Metabolic stability in rat liver microsome assessed as percentage of compound remaining at 1 uM measured after 30 min by LC-MS/MS analysis; type: ADME; conditions: liver microsomes, read-out: Stability
[9] = Metabolic stability in human liver microsome assessed as half life at 1 uM by LC-MS/MS analysis; type: ADME; conditions: liver microsomes
[10] = Metabolic stability in rat plasma assessed as percentage of compound remaining at 1 uM measured after 1 hr by LC-MS/MS analysis; type: ADME, cell-free; conditions: read-out: Stability
[11] = Metabolic stability in rat liver microsome assessed as half life at 1 uM by LC-MS/MS analysis; type: ADME; conditions: liver microsomes

Activity [1] | Activity [2] | Activity [3] | IC50 [4] | Activity [5] | remaining at 0.5 h, 1 µM [6] | half-life at 1 µM [7] | remaining at 0.5 h, 1 µM [8] | half-life at 1 µM [9] | remaining at 1 h, 1 µM [10] | half-life at 1 µM [11] | SMILES
5.9% | 24.5% |  |  |  |  |  |  |  |  |  | Cc1cc(/C=C/c2c(C)c3ccc(O)cc3n(C)c2=O)cc(C)c1O
3.1% | 20.8% | 56.6% | 13.7 µM | 26.5% |  |  |  |  |  |  | Cc1cc(CCc2c(C)c3ccc(O)cc3n(C)c2=O)cc(C)c1O
2.3% | 16.4% | 54.8% | 14.4 µM | 22.1% |  |  |  |  |  |  | Cc1cc(CCc2c(C)c3ccc(N)cc3n(C)c2=O)cc(C)c1O
1.8% | 28.1% |  |  |  |  |  |  |  |  |  | Cc1n[nH]c(C)c1/C=C/c1c(C)c2ccc(N)cc2n(C)c1=O
14.3% |  |  |  |  |  |  |  |  |  |  | COc1cc2c(C)c(/C=C/c3c(C)n[nH]c3C)c(=O)n(C)c2cc1N
3.6% |  |  |  | 15.9% |  |  |  |  |  |  | O=C(O)c1ccc2nc(-c3cc(Cl)cc(Cl)c3)oc2c1
11.6% | 34.8% |  |  |  |  |  |  |  |  |  | Cc1n[nH]c(C)c1CCc1c(C)c2ccc(N)cc2n(C)c1=O
3.4% | 12.8% | 49.6% | 3.1 µM | 16.7% | 76.9% | ≥ 10 h | 57.2% | 1.59 h | ≥ 100% | 0.603 h | Cc1cc(/C=C/c2c(C)c3ccc(N)cc3n(C)c2=O)cc(C)c1O
6% | 15.7% | 55.3% | 11.4 µM | 22.9% | 71.5% | 2.33 h | 59.9% | 1.01 h | 86.8% | 0.758 h | COc1cc2c(C)c(/C=C/c3cc(C)c(O)c(C)c3)c(=O)n(C)c2cc1N
2.5% | 31.8% |  |  |  |  |  |  |  |  |  | COc1cc2c(C)c(CCc3cc(C)c(O)c(C)c3)c(=O)n(C)c2cc1N
